Experiments:
CYSLTR1 = molecular target: T1, CYSLTR1 (Homo sapiens, UniProt Q9Y271); test: NanoBRET screen HiBiT-CYSLTR1 in HEK293; assay type: binding
T1 construct: purchased Promega (in-house HiBiT-GPCR construct library, NanoBRET)
T1 sequence (Q9Y271 1-337): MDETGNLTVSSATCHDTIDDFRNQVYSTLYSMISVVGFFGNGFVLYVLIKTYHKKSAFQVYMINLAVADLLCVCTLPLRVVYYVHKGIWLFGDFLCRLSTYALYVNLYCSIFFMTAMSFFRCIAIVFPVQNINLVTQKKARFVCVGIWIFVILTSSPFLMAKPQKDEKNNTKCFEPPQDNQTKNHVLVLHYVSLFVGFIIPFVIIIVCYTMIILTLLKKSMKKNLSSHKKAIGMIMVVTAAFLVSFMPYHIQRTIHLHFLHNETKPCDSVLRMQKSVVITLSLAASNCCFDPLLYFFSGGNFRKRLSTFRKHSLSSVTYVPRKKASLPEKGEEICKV
Method: (§1) Each tracer candidate was screened across the entire library of HiBiT-GPCR constructs using NanoBRET as the detection modality. As depicted in Figure 4A, the specificity of interactions was evaluated through decrease in BRET due to competitive displacement of a bound tracer by excess parental compound. Each tracer was analyzed for binding to each HiBiT-GPCR fusion in the absence and in the presence of competing parental compound. Briefly, HEK293 cells were transfected with HiBiT-GPCR constructs diluted into promoterless DNA to reduce expression and maximize translocation to the cell surface. Each tracer candidate was then screened at concentrations of 1 μM and 0.1 μM across cells expressing these fusions. Cells were treated for 1.5 h with tracer either alone or in the presence of 20 μM competing parental compound (i.e., control). BRET was measured upon addition of purified LgBiT and subsequent complementation with HiBiT genetically fused to a GPCR. The specificity of interactions was assessed through a decrease in BRET signal due to competitive displacement of the bound tracer. To further gauge the robustness of these interactions, the fold response over the control (i.e., BRETtracer/BRETcontrol) was calculated. We chose a 1.5-fold response, which translates to ≥7-fold signal over noise as the minimal threshold required to score an interaction as positive.
(§2) HiBiT-GPCR DNA constructs were diluted in 10 mM Tris pH 8 to a final concentration of 0.01 μg/μL, arrayed in 96-well plates and stored at −20 °C. For transfection, HEK293 cells were suspended in Opti-MEM (without phenol red) supplemented with 2% fetal bovine serum (Seradigm) and 100 units/mL penicillin–streptomycin (Gibco) at a final concentration of 220,000 cells/mL and dispensed into white 96-well plates at 90 μL/well. Subsequent transfections and screens were carried using an Agilent Bravo Automated Liquid Handling Platform. First, the 96-well HiBiT DNA arrays were diluted 25-fold in Opti-MEM (without serum or phenol red) to a final concentration of 0.0004 μg/μL and 20 μL of the diluted DNAs were transferred into new 96-well plates. Next, promoterless carrier DNA (1 μg/μL) was diluted 25-fold (0.04 μg/μL) and then dispensed into the diluted arrays at 20 μL/well. Following brief mixing, Viafect transfection reagent (Promega) diluted 16-fold into Opti-MEM was dispensed into the plates at 40 μL/well. After mixing by pipetting, plates were incubated for 10 min on the pipetting station deck. The DNA-transfection reagent complexes were then added to plates containing cells. To facilitate the screen, 10 μL of DNA-transfection reagent complexes were added in duplicates to the top 4 and bottom 4 rows, resulting in two identical 48-well arrays per plate. Plates with transfected cells were incubated for 18–20 h at 37 °C/5% CO2. A screen of each tracer across the entire library using two different concentrations requires duplicate plates of transfected cells. Depending on the number of tracers being screened, transfections can be scaled up using the same ratios. The next day, for each tracer, four 20× screening solutions in tracer dilution buffer (Promega) were prepared: two duplicates at final concentration of 20 μM and two duplicates at a final concentration of 2 μM. […] The four resulting solutions were diluted 4-fold in Opti-MEM without serum or phenol red to generate 5× solutions (5 µM and 0.5 µM tracer +/− 100 μM competing compound). To screen the library, a BioTek MultiFlo FX liquid dispenser was used to dispense 22.5 µL of tracer solution to the top 4 rows and 22.5 µL tracer + competing compound solution to the 4 bottom rows. Plates were briefly mixed on an orbital shaker and incubated for 1.5 h at room temperature. […] Plates were briefly mixed on an orbital shaker and incubated for 15 min to allow complementation.

ADRA1A = molecular target: T2, ADRA1A (Homo sapiens, UniProt P35348); test: NanoBRET screen HiBiT-ADRA1A in HEK293; assay type: binding
T2 construct: purchased Promega (in-house HiBiT-GPCR construct library, NanoBRET)
T2 sequence (P35348 1-466): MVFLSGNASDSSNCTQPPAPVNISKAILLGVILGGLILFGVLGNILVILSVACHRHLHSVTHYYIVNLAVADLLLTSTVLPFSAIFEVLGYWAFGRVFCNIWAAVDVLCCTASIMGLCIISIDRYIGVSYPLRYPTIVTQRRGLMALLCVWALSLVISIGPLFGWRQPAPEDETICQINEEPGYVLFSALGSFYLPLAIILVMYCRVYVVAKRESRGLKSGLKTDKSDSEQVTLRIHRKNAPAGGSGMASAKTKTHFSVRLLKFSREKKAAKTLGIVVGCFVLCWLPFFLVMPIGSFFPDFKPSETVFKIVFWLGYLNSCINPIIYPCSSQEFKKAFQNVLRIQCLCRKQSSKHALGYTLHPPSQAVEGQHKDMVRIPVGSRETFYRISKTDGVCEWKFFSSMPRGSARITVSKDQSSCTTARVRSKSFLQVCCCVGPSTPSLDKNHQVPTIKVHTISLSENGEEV
Method: as §1, §2

SMILES | NanoBRET Fold Response (CYSLTR1; CYSLTR1, tracer 0.1μM) | NanoBRET Fold Response (CYSLTR1; CYSLTR1, tracer 1μM) | NanoBRET Fold Response (ADRA1A; ADRA1A, tracer 0.1μM) | NanoBRET Fold Response (ADRA1A; ADRA1A, tracer 1μM) | other results
O=C(CCOCCOCCOCCOCCNC(=O)CCc1ccc2n1[B-](F)(F)[N+]1=C(c3ccc[nH]3)C=CC1=C2)NCCCN1CCN(C2=Nc3ccccc3Oc3ccc(Cl)cc32)CC1 [Loxapine-a-2-NB590] | 1.12 | 1.02 | 3.76 | 3.42 | 
CCCn1c(=O)c2[nH]c(-c3ccc(OCC(=O)NCCNC(=O)CCOCCNC(=O)c4ccc(CNC(=O)CCc5ccc6n5[B-](F)(F)[N+]5=C(c7ccc[nH]7)C=CC5=C6)cc4)cc3)nc2n(CCC)c1=O [XAC-3-NB590] |  | 1.08 | 1.10 | 0.94 | 
CN(C)CCC=C1c2ccccc2CCc2ccc(C(=O)NCCNC(=O)CCOCCOCCOCCOCCNC(=O)CCc3ccc4n3[B-](F)(F)[N+]3=C(c5ccc[nH]5)C=CC3=C4)cc21 [Amitriptyline-a-2-NB590] |  |  |  |  | NanoBRET Fold Response (ADRA1A; tracer at 0.1μM): 1.38; NanoBRET Fold Response (ADRA1A; tracer at 1μM): 2.14
COc1ccccc1N1CCN(CCCCN2C(=O)c3ccc(CNC(=O)CCOCCOCCOCCOCCNC(=O)CCc4ccc5n4[B-](F)(F)[N+]4=C(c6ccc[nH]6)C=CC4=C5)cc3C2=O)CC1 [NAN-190-2-NB590] | 1.04 | 1.02 | 5.18 | 4.33 | 
O=C(CCc1ccc2n1[B-](F)(F)[N+]1=C(c3ccc[nH]3)C=CC1=C2)NCc1ccc(C(=O)NCCOCCOCCNCC(O)COc2cccc3ccccc23)cc1 (centres unmarked) [Propranolol-3-NB590] |  |  |  |  | NanoBRET Fold Response (CYSLTR1; CYSLTR1, 0.1μM): 0.71; NanoBRET Fold Response (ADRA1A; ADRA1A, 0.1μM): 1.53; NanoBRET Fold Response (ADRA1A; ADRA1A, 1μM): 1.47
COc1ccccc1N1CCN(CCCCN2C(=O)c3ccc(CNC(=O)CCOCCNC(=O)c4ccc(CNC(=O)CCc5ccc6n5[B-](F)(F)[N+]5=C(c7ccc[nH]7)C=CC5=C6)cc4)cc3C2=O)CC1 [NAN-190-3-NB590] | 1.15 | 1.30 | 3.94 | 3.91 | 
O=C(CCc1ccc2n1[B-](F)(F)[N+]1=C(c3ccc[nH]3)C=CC1=C2)NCc1ccc(C(=O)NCCOCCC(=O)N[C@@H]2CC[C@@]3(O)[C@H]4Cc5ccc(O)c6c5[C@@]3(CCN4CC3CC3)[C@H]2O6)cc1 [Naltrexone-3-NB590] | 0.74 | 1.09 | 1.10 | 0.96 | 
CCOC(=O)c1cc(C#N)c(N2CCC(C(=O)NS(=O)(=O)Cc3ccccc3/C=C/C(=O)NCCNC(=O)CCc3ccc4n3[B-](F)(F)[N+]3=C(c5ccc[nH]5)C=CC3=C4)CC2)nc1C [AZD1283-1-NB590] |  |  |  |  | NanoBRET Fold Response (CYSLTR1; CYSLTR1, 0.1μM): 1.01; NanoBRET Fold Response (CYSLTR1; CYSLTR1, 1μM): 0.98; NanoBRET Fold Response (ADRA1A; ADRA1A, 0.1μM): 1.06; NanoBRET Fold Response (ADRA1A; ADRA1A, 1μM): 1.06
COc1ccc2[nH]c(-c3ccc(CNC(=O)CCOCCOCCOCCOCCNC(=O)CCc4ccc5n4[B-](F)(F)[N+]4=C(c6ccc[nH]6)C=CC4=C5)cc3)c(CCNC(C)=O)c2n1 [AzomelatoninICO9-2-NB590] |  |  |  |  | NanoBRET Fold Response (CYSLTR1; 0.1μM tracer): 0.86; NanoBRET Fold Response (CYSLTR1; 1μM tracer): 0.91; NanoBRET Fold Response (ADRA1A; 0.1μM tracer): 1.06; NanoBRET Fold Response (ADRA1A; 1μM tracer): 0.94
CC(C)N(CC[C@H](c1ccccc1)c1cc(CCNC(=O)CCOCCOCCOCCOCCNC(=O)CCc2ccc3n2[B-](F)(F)[N+]2=C(c4ccc[nH]4)C=CC2=C3)ccc1O)C(C)C [Tolterodine-2-NB590] | 0.86 | 0.91 | 0.97 | 0.98 | 
CN1CCN(C2=Nc3cc(Cl)ccc3N(CC(=O)NCCOCCOCCOCCOCCNC(=O)CCc3ccc4n3[B-](F)(F)[N+]3=C(c5ccc[nH]5)C=CC3=C4)c3ccccc32)CC1 [Clozapine-c-2-NB590] |  |  |  |  | NanoBRET Fold Response (CYSLTR1; CYSLTR1, 0.1μM tracer): 0.90
N#CN=C(NCCCOc1cccc(CN2CCCCC2)c1)NCCNC(=O)CCOCCOCCOCCOCCNC(=O)CCc1ccc2n1[B-](F)(F)[N+]1=C(c3ccc[nH]3)C=CC1=C2 [Aminopotentidine-2-NB590] | 1.05 | 1.00 | 1.05 | 1.00 | 
COc1ccc2c(n1)c(CCNC(C)=O)cn2CCNC(=O)CCc1ccc2n1[B-](F)(F)[N+]1=C(c3ccc[nH]3)C=CC1=C2 [Azamelatonin-1-NB590] |  |  |  |  | NanoBRET Fold Response (CYSLTR1; 0.1μM tracer): 0.81; NanoBRET Fold Response (CYSLTR1; 1μM tracer): 1.23; NanoBRET Fold Response (ADRA1A; 0.1μM tracer): 0.96; NanoBRET Fold Response (ADRA1A; 1μM tracer): 0.95
CN(CCC=C1c2ccccc2CCc2ccccc21)C(=O)CCOCCOCCOCCOCCNC(=O)CCc1ccc2n1[B-](F)(F)[N+]1=C(c3ccc[nH]3)C=CC1=C2 [Amitriptyline-e-2-NB590] |  |  |  |  | NanoBRET Fold Response (ADRA1A; tracer at 1μM): 1.32
N#CN/C(=N\CCNC(=O)c1ccc(N)cc1)NCCCOc1cccc(CN2CCCCC2)c1 [Aminopotentidine (unmodified)] |  |  |  |  | NanoBRET Fold Response (ADRA1A; ADRA1A, other tracers/Aminopotentidine (unmodified), 0.1μM): 1.03; NanoBRET Fold Response (ADRA1A; ADRA1A, other tracers/Aminopotentidine (unmodified), 1μM): 1.07
CC(C)N(CC[C@H](c1ccccc1)c1cc(CCNC(=O)c2ccc(CNC(=O)CCc3ccc4n3[B-](F)(F)[N+]3=C(c5ccc[nH]5)C=CC3=C4)cc2)ccc1O)C(C)C [Tolterodine-BZ-NB590] | 0.97 | 0.99 | 1.56 | 2.17 | 
CN1CCN(C2=Nc3cc(Cl)ccc3Nc3ccc(CNC(=O)CCOCCOCCOCCOCCNC(=O)CCc4ccc5n4[B-](F)(F)[N+]4=C(c6ccc[nH]6)C=CC4=C5)cc32)CC1 [Clozapine-b-2-NB590] |  |  |  |  | NanoBRET Fold Response (CYSLTR1; CYSLTR1, 0.1μM tracer): 1.10

— PMC8151276, “An Integrated Approach toward NanoBRET Tracers for Analysis of GPCR Ligand Engagement” (Molecules, 2021)
